Read-outs that look alike come from different tables or passages of the source. Each block holds one molecule with its values, some of them ahead of it.
Legend:
TNF-α = TNF-α secretion (h) (PBMC); assay type: cell-based, human; settings: LPS (1 μg/ml), 24 h/37° C., EIA, "Not active" = less than 25% inhibition at highest tested concentration 1000 nM; for IC50: read-out: TNF-α secretion IC50
[1] = test system: splenic lymphocytes isolated from C57BL/6 mice and CBA mice; experiment: Immunosuppression ([3H]TMD incorporation in mouse splenic lymphocytes); assay type: cell-based; settings: "Not active" = less than 25% inhibition at 1000 nM
cytokine release = experiment: Panel of standard cell-based in vitro assays evaluating cytokine release inhibition; settings: prodrugs compared to the steroid drugs (Examples 27 and 62, respectively)
Description: The selected compounds of the invention were tested in a panel of standard, cell-based in vitro assays evaluating the cytokine release inhibition and thus the anti-inflammatory activity of a test article. Several potent steroid analogs were identified, namely compounds described in Examples 23, 27, 43, 59 and 62. […] Therefore by masking the pharmacological properties of a respective steroid the mutual prodrug mitigates the oropharyngeal side effects and confines the antiinflammatory activity of a steroid to the endobronchial space, where the lung enzymes (specifically alkaline phosphatase) release the pharmacologically active steroid (see Examples 141-143).

alkaline phosphatase = experiment: Conversion of mutual prodrugs after exposure to alkaline phosphatase (ALP experiment); settings: mutual prodrug 16 + alkaline phosphatase;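 also: mutual prodrug and its released products quantified by LCMS over time in buffer with alkaline phosphatase, compared against enzyme-free control buffer, incubations running 25–50 hours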
Description: Reaction and control solutions were prepared by adding a 500 μL aliquot of a ˜200 ng/μl solution in 1:1 acetonitrile/water of and the compound 16 (or alternatively 17) to 500 μl of a pH 7.4 buffer solution, containing 5 mM tris(hydroxymethyl)aminomethane, 1 mM ZnCl2, 1 mM MgCl2. For the reaction solutions, the buffer also contained approximately 600 ng/μl of alkaline phosphatase (Sigma-Aldrich) whereas the control buffer solutions contained no enzyme. The reaction and control solutions were incubated at 37° C. for 25 to 50 hours. The solutions were analyzed periodically for the respective mutual prodrug and reaction products by LCMS.
The concentration of the alkaline phosphatase in the reaction buffer was ˜600 ng/μL (the enzyme activity of the solution was not determined).
The concentration of the alkaline phosphatase in the buffer added to the stock solution was ˜600 ng/μl (the enzyme activity of the solution was not determined).

[2] = Mus musculus, Splenic lymphocyte, read-out: Immunosuppresion IC50, mouse splenic lymphocytes, 72 h/37° C., [3H]TMD incorporation
[3] = read-out: Immunosuppresion IC50, mouse splenic lymphocytes, 72 h/37° C., [3H]TMD incorporation

Structure (SMILES): C[C@]12C=CC(=O)C=C1CC[C@H]1[C@@H]3C[C@H]4O[C@@H](C5CCCCC5)O[C@@]4(C(=O)Cn4ccnc4)[C@@]3(C)C[C@H](O)[C@@]12F [Example 45, 16,17-[(Cyclohexylmethylene)bis(oxy)]-9-fluoro-11-hydroxy-21-(imidazol-1-yl)-pregna-1,4-diene-3,20-dione[11β,16α(R)]]
TNF-α secretion IC50 (TNF-α): Not active
IC50 [1, 2]: > 1000 nM

Structure (SMILES): C[C@]12C=CC(=O)C=C1CC[C@@H]1[C@@H]2[C@@H](O)C[C@@]2(C)[C@H]1C[C@H]1OC(c3cccnc3)O[C@]12C(=O)CO (stereo partly shown) [Example 59]
anti-inflammatory activity (cytokine release inhibition), assessment in words (cytokine release): potent
IC50 (TNF-α; Homo sapiens, 24 h): 85 nM
IC50 [1, 2]: 2 nM

Structure (SMILES): C[C@]12C=CC(=O)C=C1CC[C@H]1[C@@H]3C[C@H]4O[C@@H](C5CCCCC5)O[C@@]4(C(=O)CN4CCOCC4)[C@@]3(C)C[C@H](O)[C@@]12F [Example 34, 16,17-[(Cyclohexylmethylene)bis(oxy)]-9-fluoro-11-hydroxy-21-(4-morpholin-1-yl)-pregna-1,4-diene-3,20-dione[11β,16α(R)]]
IC50 (TNF-α; Homo sapiens, 24 h): > 1000 nM
IC50 [1, 2]: 20 nM

Structure (SMILES): C[C@]12C=CC(=O)C=C1CC[C@H]1[C@@H]3C[C@H]4O[C@@H](C5CCCCC5)O[C@@]4(C(=O)CSc4ccncc4)[C@@]3(C)C[C@H](O)[C@@]12F [Example 47, 16,17-[(Cyclohexylmethylene)bis(oxy)]-9-fluoro-11-hydroxy-21-(pyridin-4-yl-thio)-pregna-1,4-diene-3,20-dione[11β,16α(R)]]
TNF-α secretion IC50 (TNF-α): Not active
IC50 [1, 2]: 66 nM

Structure (SMILES): C[C@]12C=CC(=O)C=C1CC[C@H]1[C@@H]3C[C@H]4OC(c5cccnc5)O[C@@]4(C(=O)CO)[C@@]3(C)C[C@H](O)[C@@]12F (single isomer, unassigned) [Example 22S-epimer]
IC50 (TNF-α): > 1000 nM
IC50 [1, 3]: 36 nM

Salmeterol Concentration (alkaline phosphatase; 0.00 Hours @ 37° C.): 0.1 nmol/mL
Salmeterol Concentration (alkaline phosphatase; 0.59 Hours @ 37° C.): 1.8 nmol/mL
Salmeterol Concentration (alkaline phosphatase; 1.19 Hours @ 37° C.): 4.4 nmol/mL
Salmeterol Concentration (alkaline phosphatase; 2.96 Hours @ 37° C.): 12.3 nmol/mL
Salmeterol Concentration (alkaline phosphatase; 3.56 Hours @ 37° C.): 14.4 nmol/mL
Salmeterol Concentration (alkaline phosphatase; 4.15 Hours @ 37° C.): 17.1 nmol/mL
Salmeterol Concentration (alkaline phosphatase; 10.67 Hours @ 37° C.): 34.2 nmol/mL
Salmeterol Concentration (alkaline phosphatase; 15.41 Hours @ 37° C.): 41.4 nmol/mL
Salmeterol Concentration (alkaline phosphatase; 19.56 Hours @ 37° C.): 44.8 nmol/mL
Salmeterol Concentration (alkaline phosphatase; 24.30 Hours @ 37° C.): 46.9 nmol/mL
Salmeterol Concentration (alkaline phosphatase; 30.82 Hours @ 37° C.): 48.1 nmol/mL
Salmeterol Concentration (alkaline phosphatase; 34.97 Hours @ 37° C.): 49.6 nmol/mL
Structure (SMILES): OCc1cc(C(O)CNCCCCCCOCCCCc2ccccc2)ccc1O (stereo not shown) [Salmeterol, salmeterol, reference compound]

Structure (SMILES): C[C@]12C=CC(=O)C=C1CC[C@H]1[C@@H]3C[C@H]4O[C@@H](C5CCCCC5)O[C@@]4(C(=O)CO)[C@@]3(C)C[C@H](O)[C@@]12F [Example 23, 16,17-[(Cyclohexylmethylene)bis(oxy)]-9-fluoro-11,21-dihydroxypregna-1,4-diene-3,20-dione[11β,16α(R)]]
anti-inflammatory activity (cytokine release inhibition), assessment in words (cytokine release): potent
IC50 (TNF-α; Homo sapiens, 24 h): 1.2 nM
IC50 [1, 2]: 0.34 nM

Structure (SMILES): C[C@]12C=CC(=O)C=C1CC[C@H]1[C@@H]3C[C@H]4O[C@@H](C5CCCCC5)O[C@@]4(C(=O)CN4CCC4)[C@@]3(C)C[C@H](O)[C@@]12F [Example 43, 16,17-[(Cyclohexylmethylene)bis(oxy)]-9-fluoro-11-hydroxy-21-(azetidin-1-yl)-pregna-1,4-diene-3,20-dione[11β,16α(R)]]
anti-inflammatory activity (cytokine release inhibition), assessment in words (cytokine release): potent
IC50 (TNF-α; Homo sapiens, 24 h): > 1000 nM
IC50 [1, 2]: 8.8 nM

Structure (SMILES): C[C@]12C=CC(=O)C=C1CC[C@H]1[C@@H]3C[C@H]4OC(c5cccnc5)O[C@@]4(C(=O)CO)[C@@]3(C)C[C@H](O)[C@@]12F (single isomer, unassigned) [Example 22R-epimer]
IC50 (TNF-α): 12 nM
IC50 [1, 3]: 0.89 nM
